Measurements from ChEMBL document CHEMBL4507319 (2021).

Assays:
Conditions in all cases: Compound concentration 1.0 uM
[1] = molecular target: T1, Cytoplasmic tyrosine-protein kinase BMX (Homo sapiens) (UniProt P51813); test: Bmx(h) Eurofins kinase panel
T1 sequence (whole entry): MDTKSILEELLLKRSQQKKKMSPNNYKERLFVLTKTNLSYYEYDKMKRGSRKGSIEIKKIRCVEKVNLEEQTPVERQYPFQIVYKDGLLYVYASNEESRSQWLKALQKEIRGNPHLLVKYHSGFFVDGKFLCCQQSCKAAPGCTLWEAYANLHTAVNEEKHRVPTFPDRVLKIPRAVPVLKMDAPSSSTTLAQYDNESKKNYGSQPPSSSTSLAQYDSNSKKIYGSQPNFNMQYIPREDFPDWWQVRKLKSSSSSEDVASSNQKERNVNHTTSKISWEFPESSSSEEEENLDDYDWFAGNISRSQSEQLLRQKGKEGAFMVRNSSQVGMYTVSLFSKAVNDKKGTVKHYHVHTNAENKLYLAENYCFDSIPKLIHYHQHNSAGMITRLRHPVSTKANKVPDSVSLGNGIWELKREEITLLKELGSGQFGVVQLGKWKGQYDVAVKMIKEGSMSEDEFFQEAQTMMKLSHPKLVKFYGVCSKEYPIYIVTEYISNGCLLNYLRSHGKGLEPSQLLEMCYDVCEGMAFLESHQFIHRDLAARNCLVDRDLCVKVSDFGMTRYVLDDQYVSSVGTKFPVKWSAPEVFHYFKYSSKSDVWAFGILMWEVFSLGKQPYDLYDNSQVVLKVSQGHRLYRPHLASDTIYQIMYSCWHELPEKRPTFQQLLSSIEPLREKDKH

[2] = molecular target: T2, Serine/threonine-protein kinase Chk1 (Homo sapiens) (UniProt O14757); test: CHK1(h) Eurofins kinase panel
T2 sequence (whole entry): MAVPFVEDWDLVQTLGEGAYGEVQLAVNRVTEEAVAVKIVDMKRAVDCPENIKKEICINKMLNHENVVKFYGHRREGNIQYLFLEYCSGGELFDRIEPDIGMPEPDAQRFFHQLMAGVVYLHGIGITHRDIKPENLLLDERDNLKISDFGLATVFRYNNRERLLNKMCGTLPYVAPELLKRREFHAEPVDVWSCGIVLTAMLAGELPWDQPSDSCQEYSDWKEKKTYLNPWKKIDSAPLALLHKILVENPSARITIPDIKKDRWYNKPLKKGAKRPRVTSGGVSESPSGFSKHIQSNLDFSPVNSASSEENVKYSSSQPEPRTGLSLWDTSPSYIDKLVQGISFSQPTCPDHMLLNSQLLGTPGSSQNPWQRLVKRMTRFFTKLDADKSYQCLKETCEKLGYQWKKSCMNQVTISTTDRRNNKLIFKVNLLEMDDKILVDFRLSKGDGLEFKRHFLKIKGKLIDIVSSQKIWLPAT

[3] = molecular target: T3, Ephrin type-B receptor 1 (Homo sapiens) (UniProt P54762); test: EphB1(h) Eurofins kinase panel
T3 sequence (whole entry): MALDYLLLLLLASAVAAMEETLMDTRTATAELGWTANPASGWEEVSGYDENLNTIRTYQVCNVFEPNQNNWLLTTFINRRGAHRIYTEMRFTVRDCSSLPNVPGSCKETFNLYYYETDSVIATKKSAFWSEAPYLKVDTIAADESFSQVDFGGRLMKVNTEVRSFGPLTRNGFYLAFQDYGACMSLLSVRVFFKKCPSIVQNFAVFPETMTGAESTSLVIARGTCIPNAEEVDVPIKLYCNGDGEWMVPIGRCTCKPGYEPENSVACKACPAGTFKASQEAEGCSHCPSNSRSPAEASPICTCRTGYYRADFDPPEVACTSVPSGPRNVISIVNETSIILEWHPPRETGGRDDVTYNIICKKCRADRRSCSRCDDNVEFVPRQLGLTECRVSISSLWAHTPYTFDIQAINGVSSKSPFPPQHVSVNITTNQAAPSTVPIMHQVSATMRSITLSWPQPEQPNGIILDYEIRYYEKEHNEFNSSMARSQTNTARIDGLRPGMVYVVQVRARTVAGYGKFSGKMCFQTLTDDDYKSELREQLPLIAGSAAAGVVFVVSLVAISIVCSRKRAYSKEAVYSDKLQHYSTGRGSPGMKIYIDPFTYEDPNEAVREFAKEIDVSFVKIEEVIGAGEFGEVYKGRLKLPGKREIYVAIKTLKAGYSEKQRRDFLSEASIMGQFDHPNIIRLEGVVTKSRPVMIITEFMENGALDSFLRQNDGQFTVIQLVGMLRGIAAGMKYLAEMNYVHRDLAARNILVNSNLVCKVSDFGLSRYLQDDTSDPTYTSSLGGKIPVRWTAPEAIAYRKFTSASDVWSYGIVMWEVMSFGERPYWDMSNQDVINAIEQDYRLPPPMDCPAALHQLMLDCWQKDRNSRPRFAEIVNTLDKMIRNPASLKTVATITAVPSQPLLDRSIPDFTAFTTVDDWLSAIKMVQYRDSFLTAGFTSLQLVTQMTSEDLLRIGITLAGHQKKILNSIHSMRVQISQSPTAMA

[4] = molecular target: Mitogen-activated protein kinase kinase kinase kinase 1 (Homo sapiens) (UniProt Q92918); test: HPK1(h) Eurofins kinase panel
Chain of Mitogen-activated protein kinase kinase kinase kinase 1 (Homo sapiens) (Q92918 whole entry, looked up): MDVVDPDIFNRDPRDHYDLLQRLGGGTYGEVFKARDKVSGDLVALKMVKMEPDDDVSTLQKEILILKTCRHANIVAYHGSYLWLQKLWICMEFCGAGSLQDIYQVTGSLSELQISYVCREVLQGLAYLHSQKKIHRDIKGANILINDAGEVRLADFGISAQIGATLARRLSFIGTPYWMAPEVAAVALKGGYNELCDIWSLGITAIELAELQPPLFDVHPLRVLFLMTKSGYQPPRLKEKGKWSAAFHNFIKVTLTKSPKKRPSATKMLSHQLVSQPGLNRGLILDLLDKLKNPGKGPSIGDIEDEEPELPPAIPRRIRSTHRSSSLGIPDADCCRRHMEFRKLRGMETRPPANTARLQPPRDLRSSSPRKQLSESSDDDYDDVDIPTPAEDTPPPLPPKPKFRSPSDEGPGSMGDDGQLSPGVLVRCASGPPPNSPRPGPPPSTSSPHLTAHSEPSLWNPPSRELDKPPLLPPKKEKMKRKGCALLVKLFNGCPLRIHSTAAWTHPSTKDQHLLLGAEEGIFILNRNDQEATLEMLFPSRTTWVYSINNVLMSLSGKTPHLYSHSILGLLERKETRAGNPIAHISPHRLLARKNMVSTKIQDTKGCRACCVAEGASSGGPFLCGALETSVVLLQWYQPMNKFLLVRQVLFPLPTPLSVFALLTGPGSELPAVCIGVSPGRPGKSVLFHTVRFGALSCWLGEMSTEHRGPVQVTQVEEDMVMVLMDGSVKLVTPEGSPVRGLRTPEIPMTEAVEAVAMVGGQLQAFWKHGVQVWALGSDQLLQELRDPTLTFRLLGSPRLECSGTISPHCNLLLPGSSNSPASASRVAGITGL

[5] = molecular target: RAC-gamma serine/threonine-protein kinase (Homo sapiens) (UniProt Q9Y243); test: PKBgamma (h) Eurofins kinase panel
Chain of RAC-gamma serine/threonine-protein kinase (Homo sapiens) (Q9Y243 whole entry): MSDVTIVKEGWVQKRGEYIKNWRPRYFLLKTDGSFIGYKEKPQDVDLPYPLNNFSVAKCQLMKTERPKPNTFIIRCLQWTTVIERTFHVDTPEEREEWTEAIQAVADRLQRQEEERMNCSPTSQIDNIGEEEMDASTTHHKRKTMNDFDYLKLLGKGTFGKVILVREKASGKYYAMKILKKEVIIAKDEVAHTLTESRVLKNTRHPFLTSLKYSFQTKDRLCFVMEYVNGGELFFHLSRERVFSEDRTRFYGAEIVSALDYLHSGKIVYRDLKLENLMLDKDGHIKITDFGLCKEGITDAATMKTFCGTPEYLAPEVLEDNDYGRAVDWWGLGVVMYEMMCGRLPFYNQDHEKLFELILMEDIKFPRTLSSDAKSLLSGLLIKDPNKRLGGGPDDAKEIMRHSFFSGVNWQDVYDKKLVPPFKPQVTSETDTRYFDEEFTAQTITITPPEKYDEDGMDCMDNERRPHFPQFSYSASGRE

[6] = molecular target: Protein kinase C eta type (Homo sapiens) (UniProt P24723); test: PKCeta (h) Eurofins kinase panel
Chain of Protein kinase C eta type (Homo sapiens) (P24723 whole entry): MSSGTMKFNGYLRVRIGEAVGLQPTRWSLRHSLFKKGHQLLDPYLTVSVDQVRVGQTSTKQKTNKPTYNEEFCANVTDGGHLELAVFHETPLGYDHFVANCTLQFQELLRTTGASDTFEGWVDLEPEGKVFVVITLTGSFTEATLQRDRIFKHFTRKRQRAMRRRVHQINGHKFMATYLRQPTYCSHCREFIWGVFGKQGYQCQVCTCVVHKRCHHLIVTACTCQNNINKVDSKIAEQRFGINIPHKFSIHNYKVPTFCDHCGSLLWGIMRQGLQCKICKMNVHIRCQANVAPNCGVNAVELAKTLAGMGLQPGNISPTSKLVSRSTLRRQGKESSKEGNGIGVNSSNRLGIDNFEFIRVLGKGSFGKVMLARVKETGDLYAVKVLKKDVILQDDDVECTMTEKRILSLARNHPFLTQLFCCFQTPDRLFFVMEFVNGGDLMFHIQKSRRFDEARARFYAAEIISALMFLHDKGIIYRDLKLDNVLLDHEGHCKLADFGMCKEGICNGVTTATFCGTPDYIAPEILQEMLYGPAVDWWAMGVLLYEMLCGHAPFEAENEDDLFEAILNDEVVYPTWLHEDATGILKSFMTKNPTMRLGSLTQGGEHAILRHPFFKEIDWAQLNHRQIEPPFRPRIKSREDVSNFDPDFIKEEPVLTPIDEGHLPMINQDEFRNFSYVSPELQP

Measured: % residual kinase activity

CCc1ccccc1C(=O)Nc1n[nH]c2c(C)c(F)c(C3C(C#N)=C(C)N(C)C(C)=C3C#N)cc12 [BAY-3827]
inactive: [1] 113% | [2] 112% | [3] 96% | [4] 57% | [5] 78% | [6] 92%
